US11970731B2, “Enhancement of nucleic acid polymerization by aromatic compounds” (priority 2018, dated 2024)

Columns and labels:
[1] = biological target: T1, C4760 DNA polymerase (a variant of DPO4) (Saccharolobus solfataricus, UniProt Q97W02, A155G/A42V/D156R/D292Y/D294N/E291S/E324K/E325K/E327K/E63R/E79L/G187P/G299W/I153V/I189F/I248T/I295S/K152A/K317Q/K321Q/K56Y/K78D/L293W/M76W/N188Y/P184Q/Q82W/Q83G/R300S/S297Y/S86E/T290K/T301W/V289W/V296Q); experiment: Primer extension assays using a 411mer amplicon template; assay type: biochemical, Sulfolobus solfataricus; details: comparator compound 14 (lane 1)
T1 construct: made in house
Experimental: PEM activity of compound 15 was tested in primer extension assays using a 411mer amplicon template. Primer extension reactions included the following reagents: 50 mM TrisCl, 200 mM NH4OAc, 20% PEG8K, 5% NMS, 3 nmol PP-60.20, 2 mM MnCl2, 2 μg Kod single-strand binding protein (SSB), 1 M urea, 250 pmol each XNTP, 1 pmol template, 1 pmol oligonucleotide primer, 1.2 μg purified recombinant C4760 DNA polymerase (a variant of DPO4, see SEQ ID NO:2), and 2 (lane 2) or 3 (lane 3) mM PEM. 10 μL primer extension reactions were run for 20 minutes at 37° C. and reaction products were analyzed by gel electrophoresis. A representative gel showing primer extension products is presented in FIG. 12 (the position of a 277mer is indicated by the arrow). […] Remarkably, the polymerase is completely dependent upon the addition of PEM to the reaction in order to be capable of synthesizing these lengthy Xpandomer products. Even longer extension products may be obtained by optimizing various reaction parameters, e.g., extension time and/or concentrations of various additives.
PEM activity of compound 19, was tested in primer extension assays using the 411 mer amplicon template. […] 10 μL primer extension reactions were run for 30 minutes at 37° C. and reaction products were analyzed by gel electrophoresis. […]

[2] = biological target: T2, C4552 (variant of DPO4 DNA polymerase) (Saccharolobus solfataricus, UniProt Q97W02, A155G/A42V/D156R/D292Y/D294N/E291S/E324K/E325K/E327K/E79L/G187P/G299W/I153V/I189F/I248T/I295S/K152A/K317Q/K321Q/K56Y/K78D/L293W/M76W/N188Y/P184Q/Q82W/Q83G/R300S/S297Y/S86E/T290K/T301W/V289W/V296Q); experiment: XNTP polymerization reactions on longer templates (88, 127, 227, 277 nucleotides); assay type: biochemical, Sulfolobus solfataricus; details: 1 mM compound; templates of 88, 127, 227 and 277 nucleotides; 3 or 4 nmol PP-60.20; 1-2 hr at 23° C.; FIG. 8
T2 construct: made in house
Experimental: Following the success of accurately replicating templates of up to 80 nucleotides in length into Xpandomers, XNTP polymerization reactions were conducted using four longer templates, consisting of 88, 127, 227, and 277 nucleotides in length. A variant of DPO4 DNA polymerase, referred to as C4552 (SEQ ID NO:1), was used in these polymerization reactions and reaction conditions were optimized for C4552 activity in the presence of PEM compound 1. Other suitable DPO4 polymerase variants include, but are not limited to, those of SEQ ID NO:2, SEQ ID NO:3, SEQ ID NO:4, and SEQ ID NO:5. In addition to 1 mM compound 1, reaction additives included 1 mM urea and 2.75 μg single-strand binding protein (Eco SSB). Extension reactions were carried out with 0.85 pmol template, 0.5 pmol oligonucleotide primer, and 1 nmol each XNTP in a final volume of 10 μL. Reactions were run in buffer composed of 50 mM TrisCl, pH 8.84, 200 mM NH4OAc, and 20% PEG8K supplemented with 5% NMS, polyphosphate PP-60.20 in amounts of 3 or 4 nmol, and 2 mM MnCl2. 1.2 μg purified recombinant DNA polymerase protein was used in each extension reaction and reactions were run for 1-2 hr at 23° C. […] Lanes 1-5 and 6-10 represent identical extension reactions with the exception of the amount of PP-60.20 additive, which was 3 nmol in lanes 1-5 and 4 nmol in lanes 6-10.

C4552 DNA polymerase = biological target: T3, C4552 DNA polymerase (Saccharolobus solfataricus, UniProt Q97W02, A155G/A42V/D156R/D292Y/D294N/E291S/E324K/E325K/E327K/E79L/G187P/G299W/I153V/I189F/I248T/I295S/K152A/K317Q/K321Q/K56Y/K78D/L293W/M76W/N188Y/P184Q/Q82W/Q83G/R300S/S297Y/S86E/T290K/T301W/V289W/V296Q); experiment: Primer extension assays using three 100mer templates derived from HIV1, 2 and 3 genomes; assay type: biochemical, Sulfolobus solfataricus; details: 0.5 mM PEM; HIV1, HIV2, HIV3 100mer templates; 30 minutes at 23° C.; FIG. 9
T3 construct: made in house
Experimental: PEM activity of compounds 9-11 was tested in primer extension assays using three 100mer templates, derived from the HIV1, 2, and 3 genomes. Primer extension reactions included the following reagents: 75 mM TrisCl, pH 8.44, 175 mM NH4OAc, 20% PEG8K, 5% NMS, 0.8 nmol PP-60.20, 0.6 mM MnCl2, 2.3 μg Tth single-strand binding protein (SSB), 0.5 M or 1 M urea, 200 pmol each XNTP, 1.1 pmol template, 1 pmol oligonucleotide primer, 1.2 μg purified recombinant C4552 DNA polymerase, and 0.5 mM PEM. 10 μL primer extension reactions were run for 30 minutes at 23° C. and reaction products were analyzed by gel electrophoresis.

DNA polymerase [3] = experiment: Sequencing by Expansion (SBX) of primer extension products, nanopore sequence reads aligned to template; assay type: biochemical
Experimental: To investigate the accuracy of PEM-dependent enhancement of XNTP polymerization, primer extension products were sequenced using the SBX protocol. Briefly, the constrained Xpandomer products of XNTP polymerization are cleaved to generate linearized Xpandomers. This is accomplished by first quenching the extension reaction with a solution containing 100 mM EDTA, 2 mM THPTA, and 2% Tween-20. Then the sample is subjected to amine modification with a solution of 1 M NaHCO3 and 1 M succinic anhydride in DMF. Cleavage of the phosphoramidate bonds is carried out with 37% HCl and linearized Xpandomers are purified with QIAquick columns (QIAGEN, Inc.).
For sequencing, protein nanopores are prepared by inserting α-hemolysin into a DPhPE/hexadecane bilayer member in buffer B1, containing 2 M NH4Cl and 100 mM HEPES, pH 7.4. The cis well is perfused with buffer B2, containing 0.4 M NH4Cl, 0.6 M GuCl, and 100 mM HEPES, pH 7.4. The Xpandomer sample is heated to 70° C. for 2 minutes, cooled completely, then a 2 μL sample is added to the cis well. A voltage pulse of 90 mV/390 mV/10 μs is then applied and data is acquired via Labview acquisition software.
Sequence data is analyzed by histogram display of the population of sequence reads from a single SBX reaction. […] Representative histograms of SBX sequencing of a 45mer template are presented in FIG. 6A (no additive control) and FIG. 6B (SBX in the presence of PEM compound 1).

DNA polymerase [4] = experiment: Screen of PEMs for enhancement of XNTP polymerization (primer extension, gel electrophoresis); assay type: biochemical; details: FIG. 4 gel; 45 mer template; without PEM additive up to only around 14 XNTPs
Experimental: A representative primer extension reaction may include the following reagents: 2 pmol primer, 2.2 pmol 45 mer oligonucleotide template, 50 pmol of each XNTP (XATP, XCTP, XGTP, and XTTP), 50 mM Tris HCl, pH 6.79, 200 mM NaCl, 20% PEG, 5% NMS, 0.5 nmol polyphosphate 60.19, 0.3 mM MnCl2, and 0.6 μg of purified recombinant DNA polymerase protein. Reactions may be run for 1 hr at 23° C. Reaction products (i.e., constrained Xpandomers) are treated to cleave the phosphoramidate bonds, thereby generating linearized Xpandomers. Reaction products may be analyzed using gel electrophoresis on 4-12% acrylamide gels to resolve and visualize Xpandomer products of different lengths. For the PEM screen described above, PEMs were typically tested in the micro to millimolar range.
Again, this PEM activity is specific for compound 2, as other unrelated aromatic compounds had no effect (lanes 2-7).

T1 sequence (Q97W02 other isoform, or with tags, fused parts or gaps with the stated changes): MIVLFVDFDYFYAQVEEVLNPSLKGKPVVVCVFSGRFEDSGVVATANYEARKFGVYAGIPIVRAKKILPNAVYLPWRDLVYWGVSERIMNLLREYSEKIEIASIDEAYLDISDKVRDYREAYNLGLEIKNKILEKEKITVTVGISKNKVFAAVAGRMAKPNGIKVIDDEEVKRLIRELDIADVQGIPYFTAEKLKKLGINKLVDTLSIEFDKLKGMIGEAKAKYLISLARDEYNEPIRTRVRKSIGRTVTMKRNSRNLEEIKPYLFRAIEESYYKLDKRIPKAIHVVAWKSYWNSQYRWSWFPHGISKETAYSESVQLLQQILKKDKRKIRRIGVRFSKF
T3 sequence (Q97W02 other isoform, or with tags, fused parts or gaps with the stated changes): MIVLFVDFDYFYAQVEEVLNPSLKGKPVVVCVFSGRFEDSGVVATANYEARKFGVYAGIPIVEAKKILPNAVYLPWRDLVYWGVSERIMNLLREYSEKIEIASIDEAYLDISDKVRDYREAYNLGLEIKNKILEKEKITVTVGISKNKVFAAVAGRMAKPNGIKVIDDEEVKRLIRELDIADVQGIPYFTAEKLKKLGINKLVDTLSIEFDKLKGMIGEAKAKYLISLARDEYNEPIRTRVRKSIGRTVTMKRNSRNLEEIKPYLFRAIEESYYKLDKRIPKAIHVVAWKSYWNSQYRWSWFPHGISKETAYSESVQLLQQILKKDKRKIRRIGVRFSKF

NC(=O)c1cc(-c2cn(-c3ccc(C(=O)O)c(O)c3)nn2)nc(-c2cn(-c3ccc(C(=O)O)c(O)c3)nn2)c1 [Compound 19, 4,4′-((4-carbamoylpyridine-2,6-diyl)bis(1H-1,2,3-triazole-4,1-diyl))bis(2-hydroxybenzoic acid)]
PEM activity: polymerization of XNTPs into Xpandomer copies of the 411 mer template ([1]; 0.5, 1, or 1.5 mM PEM, 0.5 pmol template, 30 minutes at 37° C., FIG. 14): enables polymerization of XNTPs into lengthy Xpandomer copies of the 411 mer template, albeit in a manner less efficient than that of compound 14

CCOC(=O)c1cc(-c2cn(-c3ccc(O)c(C(=O)O)c3)nn2)nc(-c2cn(-c3ccc(O)c(C(=O)O)c3)nn2)c1 [Compound 15, 5,5′-((4-(ethoxycarbonyl)pyridine-2,6-diyl)bis(1H-1,2,3-triazole-4,1-diyl))bis(2-hydroxybenzoic acid)]
PEM activity: polymerization of XNTPs into Xpandomer copies of the 411 mer template ([1]; 2 or 3 mM PEM, 1 pmol template, 20 minutes at 37° C., FIG. 12): enables polymerization of XNTPs into lengthy Xpandomer copies of the 411 mer template in a manner comparable to that of compound 14

O=C(O)c1ccc(-n2cc(-c3cccc(-c4cn(-c5ccc(C(=O)O)c(O)c5)nn4)n3)nn2)cc1O [Compound 1, 4,4′-(pyridine-2,6-diylbis(1H-1,2,3-triazole-4,1-diyl))bis(2-hydroxybenzoic acid)]
polymerization of XNTPs into Xpandomer copies of longer templates [2]: generate complete Xpandomer copies of each longer template
PEM activity: polymerization of XNTPs into Xpandomer copies of 100 mer templates (C4552 DNA polymerase): enables polymerization of XNTPs into full length Xpandomer copies of the three different 100 mer templates
accuracy of SBX sequence reads (DNA polymerase [3]; 45mer template, FIG. 6B, without additive reads not accurate past around base 18): increased the accuracy of the sequence reads across the entire length of the 45 mer template
accuracy of SBX sequence reads (DNA polymerase [3]; 60 mer template, FIG. 7A): enabled accurate sequence reads completely to the end of each of these longer templates
accuracy of SBX sequence reads (DNA polymerase [3]; 80 mer template, FIG. 7B): enabled accurate sequence reads completely to the end of each of these longer templates
DNA polymerase-mediated primer extension with XNTPs (length of extension products) (DNA polymerase [4]): enables the polymerase to synthesize considerably longer extension products
